From ChEMBL document CHEMBL1158598, “5-ureidobenzofuranone indoles as potent and efficacious inhibitors of PI3 kinase-alpha and mTOR for the treatment of breast cancer” (Bioorg Med Chem Lett, 2010)
Values after ≈ are worked out from the molar mass of the structure shown. Active and inactive are the calls of the source. No cut-off for these calls is given here.

How the values were obtained:
[1] = molecular target: Phosphatidylinositol 4,5-bisphosphate 3-kinase catalytic subunit alpha isoform (Homo sapiens, UniProt P42336); experiment: Inhibition of PI3Kalpha
[2] = molecular target: Serine/threonine-protein kinase mTOR (Homo sapiens, UniProt P42345); experiment: Inhibition of mTOR
[3] = Cytotoxicity against human PC3MM2 cells; format: functional, cell-based
MDA-MB-361 [4] = experiment: Cytotoxicity against human MDA-MB-361 cells; format: functional, cell-based
[5] = molecular target: Phosphatidylinositol 4,5-bisphosphate 3-kinase catalytic subunit beta isoform (Homo sapiens, UniProt P42338); experiment: Inhibition of PI3Kbeta
[6] = molecular target: Phosphatidylinositol 4,5-bisphosphate 3-kinase catalytic subunit gamma isoform (Homo sapiens, UniProt P48736); experiment: Inhibition of PI3gamma
[7] = molecular target: T1, Phosphatidylinositol 4,5-bisphosphate 3-kinase catalytic subunit delta isoform (Homo sapiens, UniProt O00329); experiment: Inhibition of PI3delta
T1 sequence (O00329 whole entry): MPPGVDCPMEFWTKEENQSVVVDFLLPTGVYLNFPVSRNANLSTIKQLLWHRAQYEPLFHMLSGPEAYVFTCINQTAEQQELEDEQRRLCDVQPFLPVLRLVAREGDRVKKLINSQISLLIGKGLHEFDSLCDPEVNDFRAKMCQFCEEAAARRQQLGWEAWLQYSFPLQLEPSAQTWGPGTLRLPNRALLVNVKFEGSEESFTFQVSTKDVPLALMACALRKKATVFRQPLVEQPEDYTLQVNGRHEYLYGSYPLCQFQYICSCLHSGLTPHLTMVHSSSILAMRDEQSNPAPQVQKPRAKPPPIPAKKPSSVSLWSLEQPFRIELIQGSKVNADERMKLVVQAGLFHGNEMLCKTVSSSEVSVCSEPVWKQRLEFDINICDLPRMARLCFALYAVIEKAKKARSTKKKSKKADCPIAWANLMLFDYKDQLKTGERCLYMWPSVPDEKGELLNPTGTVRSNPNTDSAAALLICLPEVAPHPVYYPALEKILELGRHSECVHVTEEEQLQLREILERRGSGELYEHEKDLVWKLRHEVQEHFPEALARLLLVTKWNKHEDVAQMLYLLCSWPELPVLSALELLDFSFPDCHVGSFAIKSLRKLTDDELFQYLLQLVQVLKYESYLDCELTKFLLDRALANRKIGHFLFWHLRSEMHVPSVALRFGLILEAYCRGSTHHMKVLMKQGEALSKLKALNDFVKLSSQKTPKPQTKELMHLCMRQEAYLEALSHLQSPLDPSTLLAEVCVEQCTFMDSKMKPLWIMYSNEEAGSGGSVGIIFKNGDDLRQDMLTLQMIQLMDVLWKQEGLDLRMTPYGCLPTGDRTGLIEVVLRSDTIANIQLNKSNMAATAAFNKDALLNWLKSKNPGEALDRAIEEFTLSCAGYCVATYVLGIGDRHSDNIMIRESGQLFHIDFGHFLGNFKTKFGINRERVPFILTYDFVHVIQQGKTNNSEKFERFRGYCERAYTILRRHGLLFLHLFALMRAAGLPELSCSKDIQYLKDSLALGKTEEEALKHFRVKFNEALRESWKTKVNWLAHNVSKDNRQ

[8] = system: Phosphatidylinositol 4,5-bisphosphate 3-kinase catalytic subunit alpha isoform (Homo sapiens), P42336 [H1047R]; experiment: Inhibition of PI3Kalpha H1047R mutant
[9] = Solubility at pH 7.4; format: physicochemical; conditions: buffer
[10] = Permeability from apical to basolateral side of the human Caco-2 membrane; format: ADME, cell-based; conditions: read-out: permeability
[11] = Permeability from basolateral to apical side of the human Caco-2 membrane; format: ADME, cell-based; conditions: read-out: permeability
[12] = Half life in mouse microsome; format: ADME; conditions: microsomes
[13] = Half life in rat microsome; format: ADME; conditions: microsomes
[14] = Half life in human microsome; format: ADME; conditions: microsomes
Mus musculus [15] = experiment: Inhibition of AKT-T308 phosphorylation in nude mouse at 25 mg/kg, iv after 8 hrs; format: functional, organism-based; design: dose 25 mg/kg
Mus musculus [16] = experiment: Inhibition of AKT-S473 phosphorylation in nude mouse at 25 mg/kg, iv after 8 hrs; format: functional, organism-based; design: dose 25 mg/kg
Mus musculus [17] = experiment: Inhibition of AKT-P70S6K phosphorylation in nude mouse at 25 mg/kg, iv after 8 hrs; format: functional, organism-based; design: dose 25 mg/kg
Mus musculus [18] = experiment: Inhibition of AKT-PS6 phosphorylation in nude mouse at 25 mg/kg, iv after 8 hrs; format: functional, organism-based; design: dose 25 mg/kg
MDA-MB-361 [19] = experiment: Antitumor activity against human MDA-MB-361 cells xenografted in mouse assessed as reduction in tumor size at 25 mg/kg, iv after 1 to 9 days; format: functional, organism-based; design: dose 25 mg/kg
[20] = system: Phosphatidylinositol 4,5-bisphosphate 3-kinase catalytic subunit alpha isoform (Homo sapiens), P42336 [E545K]; experiment: Inhibition of PI3Kalpha E545K mutant
Chain of Phosphatidylinositol 4,5-bisphosphate 3-kinase catalytic subunit alpha isoform (Homo sapiens), P42336 [E545K] (P42336 whole entry E545K, canonical isoform): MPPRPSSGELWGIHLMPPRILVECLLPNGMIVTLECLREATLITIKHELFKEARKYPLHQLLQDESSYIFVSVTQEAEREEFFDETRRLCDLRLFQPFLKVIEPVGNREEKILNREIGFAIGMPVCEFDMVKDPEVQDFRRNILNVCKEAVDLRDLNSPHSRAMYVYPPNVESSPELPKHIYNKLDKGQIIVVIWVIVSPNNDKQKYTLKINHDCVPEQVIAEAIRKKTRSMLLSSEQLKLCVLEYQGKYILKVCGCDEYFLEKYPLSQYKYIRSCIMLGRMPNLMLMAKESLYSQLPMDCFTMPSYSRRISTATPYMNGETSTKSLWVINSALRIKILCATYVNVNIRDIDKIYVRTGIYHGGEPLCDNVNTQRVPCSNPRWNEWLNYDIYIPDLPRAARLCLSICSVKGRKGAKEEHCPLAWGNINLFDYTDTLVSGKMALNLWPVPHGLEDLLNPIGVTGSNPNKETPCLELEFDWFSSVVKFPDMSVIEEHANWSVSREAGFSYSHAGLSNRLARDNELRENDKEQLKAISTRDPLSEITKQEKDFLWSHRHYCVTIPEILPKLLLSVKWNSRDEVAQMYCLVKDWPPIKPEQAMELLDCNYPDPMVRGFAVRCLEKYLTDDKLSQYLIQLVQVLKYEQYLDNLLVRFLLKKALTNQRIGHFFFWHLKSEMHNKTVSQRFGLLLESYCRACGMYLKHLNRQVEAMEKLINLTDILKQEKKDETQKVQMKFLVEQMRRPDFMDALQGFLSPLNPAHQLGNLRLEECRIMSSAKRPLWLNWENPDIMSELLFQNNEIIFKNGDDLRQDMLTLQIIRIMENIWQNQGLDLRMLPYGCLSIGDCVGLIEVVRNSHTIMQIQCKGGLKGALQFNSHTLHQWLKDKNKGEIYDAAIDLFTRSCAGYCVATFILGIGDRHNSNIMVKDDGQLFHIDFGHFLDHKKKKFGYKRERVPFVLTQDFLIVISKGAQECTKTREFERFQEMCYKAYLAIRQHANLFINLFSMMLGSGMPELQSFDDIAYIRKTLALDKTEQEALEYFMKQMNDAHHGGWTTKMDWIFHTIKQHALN

Chain of Phosphatidylinositol 4,5-bisphosphate 3-kinase catalytic subunit alpha isoform (P42336 whole entry, canonical isoform): as the sequence (P42336 whole entry E545K, canonical isoform) above, with K545E counted along it
Chain of Phosphatidylinositol 4,5-bisphosphate 3-kinase catalytic subunit gamma isoform (P48736 whole entry, canonical isoform): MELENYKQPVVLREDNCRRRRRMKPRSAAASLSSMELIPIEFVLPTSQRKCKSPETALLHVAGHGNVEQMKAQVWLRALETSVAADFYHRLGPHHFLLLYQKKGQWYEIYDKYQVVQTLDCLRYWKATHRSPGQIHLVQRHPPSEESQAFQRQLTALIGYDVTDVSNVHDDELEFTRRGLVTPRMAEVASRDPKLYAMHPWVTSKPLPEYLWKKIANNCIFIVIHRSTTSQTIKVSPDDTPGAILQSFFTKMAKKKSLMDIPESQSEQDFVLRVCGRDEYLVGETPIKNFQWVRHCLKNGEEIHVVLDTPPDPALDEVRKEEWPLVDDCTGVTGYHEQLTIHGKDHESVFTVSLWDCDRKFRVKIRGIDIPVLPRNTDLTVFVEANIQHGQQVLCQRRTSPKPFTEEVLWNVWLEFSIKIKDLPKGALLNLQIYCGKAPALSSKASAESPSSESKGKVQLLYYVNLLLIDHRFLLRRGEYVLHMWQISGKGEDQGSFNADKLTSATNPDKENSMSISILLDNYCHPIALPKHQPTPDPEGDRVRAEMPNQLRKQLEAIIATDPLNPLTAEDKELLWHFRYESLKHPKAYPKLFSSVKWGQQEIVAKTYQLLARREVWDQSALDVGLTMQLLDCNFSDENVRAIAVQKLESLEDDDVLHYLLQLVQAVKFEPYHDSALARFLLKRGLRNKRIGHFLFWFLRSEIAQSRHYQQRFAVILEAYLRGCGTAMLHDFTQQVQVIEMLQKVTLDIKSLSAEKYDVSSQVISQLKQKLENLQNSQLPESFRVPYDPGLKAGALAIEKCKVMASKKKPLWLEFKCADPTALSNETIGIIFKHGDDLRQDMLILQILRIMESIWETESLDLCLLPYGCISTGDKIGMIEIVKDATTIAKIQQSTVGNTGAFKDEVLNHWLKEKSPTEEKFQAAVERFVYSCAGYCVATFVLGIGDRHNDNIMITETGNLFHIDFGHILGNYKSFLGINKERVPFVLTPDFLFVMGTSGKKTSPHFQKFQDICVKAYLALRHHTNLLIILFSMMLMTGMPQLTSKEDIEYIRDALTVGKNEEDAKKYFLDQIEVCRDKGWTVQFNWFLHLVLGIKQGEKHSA
Chain of Phosphatidylinositol 4,5-bisphosphate 3-kinase catalytic subunit alpha isoform (Homo sapiens), P42336 [H1047R] (P42336 whole entry H1047R, canonical isoform): as the sequence (P42336 whole entry E545K, canonical isoform) above, with K545E, H1047R counted along it
Chain of Phosphatidylinositol 4,5-bisphosphate 3-kinase catalytic subunit beta isoform (P42338 whole entry, canonical isoform): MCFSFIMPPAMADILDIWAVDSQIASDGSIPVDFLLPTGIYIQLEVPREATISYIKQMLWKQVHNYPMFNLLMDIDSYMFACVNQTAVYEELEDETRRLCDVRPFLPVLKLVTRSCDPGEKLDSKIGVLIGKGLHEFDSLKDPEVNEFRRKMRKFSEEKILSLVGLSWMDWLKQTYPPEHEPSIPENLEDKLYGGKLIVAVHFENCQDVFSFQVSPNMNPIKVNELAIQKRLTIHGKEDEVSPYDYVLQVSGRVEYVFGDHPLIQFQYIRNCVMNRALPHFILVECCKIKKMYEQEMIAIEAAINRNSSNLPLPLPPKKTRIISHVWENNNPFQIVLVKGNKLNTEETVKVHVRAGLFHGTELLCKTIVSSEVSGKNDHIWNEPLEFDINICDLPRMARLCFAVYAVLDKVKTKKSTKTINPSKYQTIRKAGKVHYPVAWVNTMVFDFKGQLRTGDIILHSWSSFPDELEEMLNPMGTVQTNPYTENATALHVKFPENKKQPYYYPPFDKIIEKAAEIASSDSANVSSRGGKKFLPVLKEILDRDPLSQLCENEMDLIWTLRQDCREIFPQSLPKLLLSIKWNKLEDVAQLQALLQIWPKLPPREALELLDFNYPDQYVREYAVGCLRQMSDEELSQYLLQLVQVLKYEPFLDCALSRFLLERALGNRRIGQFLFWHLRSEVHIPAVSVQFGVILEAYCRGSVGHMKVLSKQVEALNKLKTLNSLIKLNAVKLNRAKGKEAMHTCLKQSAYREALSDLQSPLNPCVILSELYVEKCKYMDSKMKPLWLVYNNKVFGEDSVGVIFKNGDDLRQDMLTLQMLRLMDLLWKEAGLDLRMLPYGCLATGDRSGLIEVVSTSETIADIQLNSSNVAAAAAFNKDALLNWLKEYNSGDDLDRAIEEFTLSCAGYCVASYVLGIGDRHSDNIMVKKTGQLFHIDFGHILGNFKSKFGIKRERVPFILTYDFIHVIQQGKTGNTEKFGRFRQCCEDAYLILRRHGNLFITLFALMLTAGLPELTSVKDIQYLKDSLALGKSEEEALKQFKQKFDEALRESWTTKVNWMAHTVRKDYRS

In the case of COc1cc(F)c2[nH]c(-c3c(C)nn(C)c3C)c(/C=C3/Oc4ccc(NC(=O)Nc5cccnc5)cc4C3=O)c2c1, the IC50 [1] is reported as 1 nM, the IC50 [2] is reported as 1.5 nM and the IC50 [3] is reported as over 1000 nM. For the same compound, the IC50 (MDA-MB-361 [4]) was 39 nM.

With CNC(=O)Nc1ccc2c(c1)C(=O)/C(=C\c1c(-c3c(C)nn(C)c3C)[nH]c3c(F)cc(OC)cc13)O2 the IC50 [1] was 0.4 nM, the IC50 [2] was 2.4 nM and the IC50 [3] was 62 nM. The IC50 (MDA-MB-361 [4]) was 20 nM.

With COc1cc(F)c2[nH]c(-c3c(C)nn(C)c3C)c(/C=C3/Oc4ccc(NC(=O)Nc5ccc(C(=O)N(C)CCN(C)C)cc5)cc4C3=O)c2c1 the IC50 [1] was 0.2 nM, the IC50 [2] was 0.3 nM and the IC50 [3] was 10 nM. It also gave an IC50 (MDA-MB-361 [4]) of under 3 nM, an IC50 [5] of 0.7 nM and an IC50 [6] of 2.4 nM. The IC50 [7] was 0.6 nM, the INH [8] was 0.5 nM and the solubility [9] was 1 µg/mL (≈ 1.47 µM). It also gave a Papp A→B [10] of 0.3 ×10⁻⁶ cm/s, a Papp B→A [11] of 0.3 ×10⁻⁶ cm/s and a half-life [12] of over 30 min. The half-life [13] was over 30 min, the half-life [14] was over 30 min and the inhibition (Mus musculus [15]) was “Active”. The inhibition (Mus musculus [16]) was “Active”, the inhibition (Mus musculus [17]) was “Active” and the inhibition (Mus musculus [18]) was “Active”. The Activity (MDA-MB-361 [19]) was “Active” and the IC50 [20] was 0.3 nM.

Compound COc1ccc2[nH]c(-c3c(C)nn(C)c3C)c(/C=C3/Oc4ccc(NC(=O)Nc5ccc(C(=O)N6CCOCC6)cc5)cc4C3=O)c2c1 has an IC50 [1] of 0.2 nM, an IC50 [2] of 4.2 nM and an IC50 [3] of 94 nM. It also gave an IC50 (MDA-MB-361 [4]) of 6 nM.

COc1ccc2[nH]cc(/C=C3/Oc4ccc(NC(=O)Nc5ccc(C(=O)N6CCN(C)CC6)cc5)cc4C3=O)c2c1 gave an IC50 [1] of 0.9 nM, an IC50 [2] of over 4000 nM and an IC50 [3] of over 1000 nM. It also gave an IC50 (MDA-MB-361 [4]) of over 1000 nM.

For COc1ccc2[nH]c(-c3c(C)nn(C)c3C)c(/C=C3/Oc4ccc(NC(=O)Nc5ccc(C(=O)N(C)CCN(C)C)cc5)cc4C3=O)c2c1, the IC50 [1] was 0.3 nM, the IC50 [2] was 1.1 nM and the IC50 [3] was 23 nM. For the same compound, the IC50 (MDA-MB-361 [4]) was under 3 nM.

With COc1cc(F)c2[nH]c(-c3c(C)nn(C)c3C)c(/C=C3/Oc4ccc(NC(=O)Nc5ccc(C(=O)N6CCOCC6)cc5)cc4C3=O)c2c1 the IC50 [1] was 0.5 nM, the IC50 [2] was 2.5 nM and the IC50 [3] was 57 nM. It also gave an IC50 (MDA-MB-361 [4]) of 6 nM.

Work on CNC(=O)Nc1ccc2c(c1)C(=O)/C(=C\c1c(-c3c(C)nn(C)c3C)[nH]c3ccc(OC)cc13)O2 yielded an IC50 [1] of 0.4 nM, an IC50 [2] of 1.3 nM and an IC50 [3] of 130 nM. The IC50 (MDA-MB-361 [4]) was 36 nM.

COc1ccc2[nH]c(-c3c(C)nn(C)c3C)c(/C=C3/Oc4ccc(NC(=O)Nc5cccnc5)cc4C3=O)c2c1 showed an IC50 [1] of 0.5 nM, an IC50 [2] of 5.2 nM and an IC50 [3] of over 10000 nM. It also gave an IC50 (MDA-MB-361 [4]) of 76 nM.

With COc1ccc2[nH]c(-c3c(C)nn(C)c3C)c(/C=C3/Oc4ccc(NC(=O)Nc5ccc(C(=O)N6CCN(C)CC6)cc5)cc4C3=O)c2c1 the IC50 [1] was 0.2 nM, the IC50 [2] was 3.8 nM and the IC50 [3] was 131 nM. For the same compound, the IC50 (MDA-MB-361 [4]) was 8 nM.
